Laboratory results published in patent US8143259B2, “Cold menthol receptor antagonists” (Janssen Pharmaceutica, NV, priority 2008, dated 2012).
Several values for one entry are separate records, joined by “and”; a condition that tells them apart may be missing. Equal entries are not always repeated.

Target: T1, canine TRPM8 (Canis lupus familiaris, UniProt Q1A7N1)
T1 construct: expressed in transfected cells
Experiment: In Vitro Canine TRPM8 Functional Assay (Ca2+ fluorescence, icilin activation)
Assay type: cell-based
Details: for inhibition at 0.2 µM: HEK293, 0.2 μM compound; for IC50: HEK293 cells stably expressing canine TRPM8, icilin activation, Ca2+ fluorescence; for inhibition at 0.5 µM: HEK293, 0.5 μM compound; for inhibition at 1 µM: HEK293, 1 μM compound; for % Inh @ 0.2 μM: 0.2 μM compound
Procedure: The functional activity of compounds of the formula (I) was determined by measuring changes in intracellular calcium concentration using a Ca^2+-sensitive fluorescent dye. The changes in fluorescent signal were monitored by a fluorescence plate reader, either a FLIPR™ (Molecular Devices) or FDSS (Hamamatsu). Increases in intracellular Ca^2+ concentration were readily detected upon activation with icilin.
HEK293 cells stably expressing canine TRPM8 were routinely grown as monolayers in Dulbecco's minimum essential medium supplemented with 10% FBS, 2 mM L-glutamine, 100 units/mL penicillin, 100 ug/mL streptomycin and 400 μg/mL G418. Cells were maintained in 5% CO2 at 37° C. At 24 hrs prior to assay, cells were seeded in black wall, clear-base poly-D-lysine coated 384-well plates (BD Biosciences, NJ, USA) at a density of 5,000 cells per well in culture medium and grown overnight in 5% CO2 at 37° C. On assay day, growth media was removed and cells were loaded with Calcium 3 Dye (Molecular Devices) for 35 min at 37° C., under 5% CO2 and then for 25 min at room temperature and atmosphere. Subsequently, cells were tested for agonist-induced increases in intracellular Ca^2+ levels using FLIPR™ or FDSS. Cells were challenged with compounds of the formula (I) (at varying concentrations) and intracellular Ca^2+ was measured for 5 min prior to the addition of icilin to all wells to achieve a final concentration that produces approximately an 80% maximal response.
Maximal fluorescence intensity (FI) achieved upon addition of icilin was exported from the FLIPR or FDSS software and further analyzed using GraphPad Prism 3.02 (Graph Pad Software Inc., CA, U.S.A.). Basal FI was subtracted prior to normalizing data to percent of maximal response. Curves were generated using the average of quadruplicate wells for each data point, were analyzed using nonlinear regression of either sigmoidal dose response or sigmoidal dose response (variable slope).

T1 sequence (Q1A7N1 1-1104): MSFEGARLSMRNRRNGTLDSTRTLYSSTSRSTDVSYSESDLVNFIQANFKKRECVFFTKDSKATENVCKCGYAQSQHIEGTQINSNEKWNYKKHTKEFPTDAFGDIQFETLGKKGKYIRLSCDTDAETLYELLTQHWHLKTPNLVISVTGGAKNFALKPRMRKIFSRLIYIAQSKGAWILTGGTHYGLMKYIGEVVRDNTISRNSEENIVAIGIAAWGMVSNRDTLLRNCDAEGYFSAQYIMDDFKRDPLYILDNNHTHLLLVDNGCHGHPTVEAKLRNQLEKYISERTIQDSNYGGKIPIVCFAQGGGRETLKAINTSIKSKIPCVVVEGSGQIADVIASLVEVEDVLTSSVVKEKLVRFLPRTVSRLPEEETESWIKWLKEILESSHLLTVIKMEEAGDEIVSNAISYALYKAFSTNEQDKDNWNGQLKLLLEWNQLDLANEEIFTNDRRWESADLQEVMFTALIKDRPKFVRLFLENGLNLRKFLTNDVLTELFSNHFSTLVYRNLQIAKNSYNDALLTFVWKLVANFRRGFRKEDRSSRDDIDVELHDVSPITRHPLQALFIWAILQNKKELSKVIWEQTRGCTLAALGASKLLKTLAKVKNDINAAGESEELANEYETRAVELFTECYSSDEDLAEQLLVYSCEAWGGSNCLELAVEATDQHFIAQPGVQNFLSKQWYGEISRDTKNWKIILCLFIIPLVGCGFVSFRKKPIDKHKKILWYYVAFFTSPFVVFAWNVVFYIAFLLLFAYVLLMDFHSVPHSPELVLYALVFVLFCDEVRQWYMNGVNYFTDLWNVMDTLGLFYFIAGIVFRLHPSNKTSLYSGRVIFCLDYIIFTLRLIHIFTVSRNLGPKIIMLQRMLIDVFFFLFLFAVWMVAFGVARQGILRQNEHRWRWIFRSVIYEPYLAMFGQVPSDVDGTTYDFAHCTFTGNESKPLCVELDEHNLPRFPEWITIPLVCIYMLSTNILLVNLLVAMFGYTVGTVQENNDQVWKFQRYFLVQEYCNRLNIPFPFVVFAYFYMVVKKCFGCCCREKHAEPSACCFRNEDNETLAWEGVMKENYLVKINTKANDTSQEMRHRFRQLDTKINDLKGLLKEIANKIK

inhibition at 0.2 µM (canine TRPM8 HEK293, icilin)	IC50	inhibition at 0.5 µM (canine TRPM8 HEK293, icilin)	SMILES	other results
101%	5 nM		O=C(C(Nc1ccccc1F)c1ccc(N2CCCCC2)nc1)N1CCC[C@H]1c1ccccc1F (mixture of isomers) [Cpd 334, 2-(2-Fluoro-phenylamino)-1-[(2S)-2-(2-fluoro-phenyl)-pyrrolidin-1-yl]-2-(3,4,5,6-tetrahydro-2H-[1,2′]bipyridinyl-5′-yl)-ethanone]	
			O=C(C(Nc1ccccc1)c1ccc(C(F)(F)F)cc1)N1CCCC1c1cc2ccccc2[nH]1 (stereo not drawn) [Cpd 26]	% Inh @ 0.5 μM (0.5 μM compound, canine TRPM8 HEK293, icilin, 0.5 µM): 56.872%
	329 nM	88%	O=C(C(CNc1ccccc1F)c1ccc(C(F)(F)F)cc1)N1CCCC1c1ccccc1 (stereo not drawn) [Cpd 108]	
	46 nM	102%	COc1ccc(C(Nc2ccccc2)C(=O)N2CCCC2c2ccccc2)cc1 (stereo not drawn) [Cpd 72]	
	61.3 nM	101%	O=C([C@@H](Nc1ccccc1F)c1ccc(C(F)(F)F)cc1)N1CCC[C@H]1c1ccccc1F (single isomer, unassigned) [Cpd 152]	
	351 nM		CC(C)(C)c1ccc(C(Nc2ccccc2)C(=O)N2CCC(O)(c3ccccc3)CC2)cc1 (stereo not drawn) [Cpd 3]	inhibition at 1 µM (canine TRPM8 HEK293, icilin): 101%
92%	27 nM		CCOC(=O)c1ccc(C(Nc2ccccc2F)C(=O)N2CCCC2c2ccccc2F)cc1 (stereo not drawn) [Cpd 287]	
	291 nM		CC(C)(C)c1ccc(C(Nc2ccccc2)C(=O)N2CCC(O)(c3ccccn3)CC2)cc1 (stereo not drawn) [Cpd 4]	inhibition at 1 µM (canine TRPM8 HEK293, icilin): 102%
	73 nM	98%	O=C(C(Nc1ccc(F)cc1)c1ccc(C(F)(F)F)cc1)N1CCCC1c1ccccc1Cl (stereo not drawn) [Cpd 74]	
	4 nM		O=C(C(Nc1ccccc1F)c1ccc(C(F)(F)F)cc1)N1CCCC1c1cccc(F)c1 (single isomer, unassigned) [Cpd 187]	% Inh @ 0.2 μM (canine TRPM8 HEK293, icilin): 98%
	48 nM	100%	O=C(C(Nc1ccccc1F)c1ccc(C(F)(F)F)cc1)N1CCc2ccccc2C1 (stereo not drawn) [Cpd 65]	
	231 nM	102%	O=C(C(c1ccc(C(F)(F)F)cc1)N1CCc2ccccc21)N1CCc2ccccc21 (stereo not drawn) [Cpd 42]	inhibition at 1 µM (canine TRPM8 HEK293, icilin): 29%
101%	8 nM		O=C(C(Nc1ccccc1F)c1cc2cccnc2s1)N1CCCC1c1ccccc1F (stereo not drawn) [Cpd 328]	
	89 nM	99%	O=C(C(Nc1ccccc1)c1cccc(C(F)(F)F)c1)N1Cc2ccccc2C1 (stereo not drawn) [Cpd 99]	
98%	18 nM		O=C(C(Nc1ccccc1F)c1ccc(C(F)(F)F)cc1)N1CCC[C@H]1c1cccc(F)c1 (mixture of isomers) [Cpd 186]	
	19 nM and 35 nM		O=C(C(Nc1ccccc1F)c1ccc(C(F)(F)F)cc1)N1CCCC1c1ccccc1Cl (single isomer, unassigned) [Cpd 198]	% Inh @ 0.2 μM (canine TRPM8 HEK293, icilin): 101%
89%	94 nM		O=C(C(Nc1ccccc1F)c1cnc2ccccc2c1)N1CCCC1c1ccccc1F (stereo not drawn) [Cpd 281]	
88%	133 nM		O=C([C@H](Nc1c(F)cccc1F)c1ccc(Br)cc1)N1[C@H](CO)CC[C@@H]1c1ccccc1 (single isomer, unassigned) [Cpd 243]	
86%	11 nM		O=C(C(Nc1ccccc1F)c1ccc(N2CCOCC2)cc1)N1CCCC1c1ccccc1F (stereo not drawn) [Cpd 293]	
100%	7 nM		O=C(C(Nc1ccccc1F)c1ccc(N2CCOCC2)nc1)N1CCCC1c1ccccc1F (stereo not drawn) [Cpd 359]	
	517 nM		CC(C)(C)c1ccc(C(Nc2ccccc2)C(=O)N2CCC[C@H]2CNc2ccccc2)cc1 (single isomer, unassigned) [Cpd 10]	inhibition at 1 µM (canine TRPM8 HEK293, icilin): 102%
	132 nM	93%	O=C(C(Nc1c(F)cccc1F)c1ccc(Cl)cc1)N1Cc2ccccc2C1 (stereo not drawn) [Cpd 147]	
	61.7 nM	98%	O=C(C(Nc1ccccc1F)c1ccc(Cl)cc1)N1Cc2ccccc2C1 (stereo not drawn) [Cpd 113]	
	29.9 nM		O=C(C(Nc1ccccc1)c1ccc(C(F)(F)F)cc1)N1CCCC1c1ccccc1F (stereo not drawn) [Cpd 20]	inhibition at 1 µM (canine TRPM8 HEK293, icilin): 101%
